Assay results reported in US9328106B2, “Cyclic ether pyrazol-4-yl-heterocyclyl-carboxamide compounds and methods of use” (Genentech, Inc., priority 2012, dated 2016).
Read-outs that look alike come from different tables or passages of the source.

Assays:
[1] = target: hERG potassium channel (Homo sapiens (Human), UniProt Q12809); assay: hERG assay (IC50), automated PatchXpress in hERG-expressing HEK-293 cells; format: cell-based; details: 0.01-100 μM, 5 minutes after adding test article; for IC20 at 5 min: human, HEK-293 cells that express hERG
hERG potassium channel, sequence (Q12809 whole entry): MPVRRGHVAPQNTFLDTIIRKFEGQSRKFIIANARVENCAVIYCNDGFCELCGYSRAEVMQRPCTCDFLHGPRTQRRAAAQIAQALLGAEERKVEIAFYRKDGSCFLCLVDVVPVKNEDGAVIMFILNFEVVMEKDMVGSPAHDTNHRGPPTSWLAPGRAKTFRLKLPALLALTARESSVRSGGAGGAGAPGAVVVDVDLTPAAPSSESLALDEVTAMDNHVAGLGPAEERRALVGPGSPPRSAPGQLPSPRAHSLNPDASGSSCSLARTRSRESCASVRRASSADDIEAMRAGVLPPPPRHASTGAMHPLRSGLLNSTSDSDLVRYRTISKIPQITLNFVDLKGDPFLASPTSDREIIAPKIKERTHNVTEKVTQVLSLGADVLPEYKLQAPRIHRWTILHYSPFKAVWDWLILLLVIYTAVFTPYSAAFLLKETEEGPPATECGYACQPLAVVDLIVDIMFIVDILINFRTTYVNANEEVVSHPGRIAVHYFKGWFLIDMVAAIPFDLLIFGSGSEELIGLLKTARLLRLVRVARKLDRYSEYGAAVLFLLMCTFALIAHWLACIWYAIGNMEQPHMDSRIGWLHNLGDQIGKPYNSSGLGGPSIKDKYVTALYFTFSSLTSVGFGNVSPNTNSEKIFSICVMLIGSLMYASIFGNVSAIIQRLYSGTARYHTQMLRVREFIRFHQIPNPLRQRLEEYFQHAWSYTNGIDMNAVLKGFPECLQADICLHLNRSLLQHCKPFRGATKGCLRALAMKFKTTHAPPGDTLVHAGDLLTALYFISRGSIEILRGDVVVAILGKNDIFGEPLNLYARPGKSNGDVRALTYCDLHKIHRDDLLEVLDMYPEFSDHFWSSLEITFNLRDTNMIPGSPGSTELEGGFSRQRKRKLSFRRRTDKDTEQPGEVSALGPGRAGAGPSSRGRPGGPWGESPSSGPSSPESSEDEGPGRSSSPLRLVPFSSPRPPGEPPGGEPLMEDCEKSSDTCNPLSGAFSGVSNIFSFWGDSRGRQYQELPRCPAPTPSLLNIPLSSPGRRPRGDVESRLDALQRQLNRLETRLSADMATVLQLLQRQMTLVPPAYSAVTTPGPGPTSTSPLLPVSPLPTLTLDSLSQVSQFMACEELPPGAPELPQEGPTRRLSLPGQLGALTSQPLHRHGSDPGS
Description: The in vitro potential for hERG potassium channel current inhibition was assessed according to the study site standard procedures (ChanTest, Cleveland, Ohio). In brief, hERG inhibition (% max) was determined in hERG-expressing HEK-293 cells (n=2/concentration) using the automated PatchXpress 7000A system (Molecular Devices, Sunnyvale, Calif.) for 5 minutes after adding the test article.

[2] = target: PIM1 (Homo sapiens (Human), UniProt P11309); assay: biochemical; format: biochemical; details: 20 pM PIM1, 1 μM FAM-peptide, 10 μM ATP, 90 minutes at room temperature; read-out: PIM1 LC3K (KI)
PIM1, sequence (P11309 whole entry): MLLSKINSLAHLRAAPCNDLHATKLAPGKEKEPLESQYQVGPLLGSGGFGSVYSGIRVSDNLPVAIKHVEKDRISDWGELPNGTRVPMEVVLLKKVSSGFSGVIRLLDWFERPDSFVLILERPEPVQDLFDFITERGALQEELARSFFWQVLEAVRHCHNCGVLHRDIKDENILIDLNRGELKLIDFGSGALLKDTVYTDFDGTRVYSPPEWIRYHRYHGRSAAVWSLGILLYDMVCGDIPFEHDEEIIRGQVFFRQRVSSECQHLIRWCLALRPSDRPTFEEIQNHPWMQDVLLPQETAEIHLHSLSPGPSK

[3] = test system: MM1.S (multiple myeloma) cells; assay: In vitro cell proliferation, MM1.S multiple myeloma cells; format: cell-based; details: Homo sapiens, MM1.S, 72 h, read-out: Prolif MM1S ATP (EC50);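 also: cells cultured in RPMI with 10% FBS and 2 mM L-Glutamine, seeded in 384-well plates, exposed to compound, cell viability measured by luminescence after CellTiter-Glo addition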
Description: (§1) BaF3 parental line was obtained from the DSMZ repository. […] Media for BaF3 parental line contained RPMI, 10% FBS, 2 mM L-Glutamine, 2 ng/mL mIL-3. Media for BaF3 PIM1 & 2 lines contained RPMI, 10% FBS, 2 mM L-Glutamine, 250 μg/mL. Media for MM1.S (multiple myeloma cells) line contained RPMI, 10% FBS, 2 mM L-Glutamine.
(§2) BaF3, a murine interleukin-3 dependent pro-B cell line, parental cells, BaF3 PIM1 cells, BaF3 PIM2 cells, and MM1.S (multiple myeloma) cells were seeded at 2 k/well, 5 k/well, 5 k/well, and 10 k/well respectively, in a 384-well plate, at 45 μL/well. Test compound was added at 5 μL/well. BaF3 cells (parental and transfected) were incubated overnight, while MM1.S cells were incubated for 72 hours at 37° C., 5% CO2. CELL TITER GLO® Reagent (Promega) was added at 50 μL/well, the plates were incubated for 30 minutes, and their luminescence read on an HT Analyst. IC50/EC50 values for the test compound were calculated.

[4] = test system: BaF3 parental cells; assay: In vitro cell proliferation, BaF3 parental line + IL3; format: cell-based, murine; details: Mus musculus;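 also: BaF3 parental cells are murine IL-3 dependent pro-B cells grown with 2 ng/mL mIL-3, 384-well format, viability read by luminescence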
[5] = test system: BaF3 PIM1 cells; assay: In vitro cell proliferation, BaF3 transfected with PIM1; format: cell-based, murine; details: Mus musculus, BaF3, read-out: Prolif BaF3 PIM1 (IC50), BaF3 PIM1 cells, incubated overnight, CELL TITER GLO;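 also: murine IL-3-dependent pro-B BaF3 cells transfected with PIM1, compound exposure overnight at 37 °C under 5% CO2, viability read as luminescence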
Description: as §1, §2

[6] = MM1.S cells, 72 hours, CELL TITER GLO
[7] = BaF3, BaF3 parental, mIL-3, incubated overnight, CELL TITER GLO, read-out: Prolif BaF3 IL3 (IC50)

Compound	IC50 [1] [nM]	IC20 at 5 min [1] [nM]	Ki [2] [nM]	EC50 [3, 6] [nM]	IC50 [4, 7] [nM]	IC50 [5] [nM]	EC50 [3] [nM]	IC50 ([4]; BaF3, read-out: Prolif BaF3 IL3 (IC50)) [nM]
CO[C@H]1CO[C@H](c2c(NC(=O)c3nc(-c4c(F)cccc4F)sc3N)cnn2C)CC[C@H]1N [Example 154, 5-Amino-N-[5-[(2S,5R,6R)-5-amino-6-methoxy-oxepan-2-yl]-1-methyl-pyrazol-4-yl]-2-(2,6-difluorophenyl)thiazole-4-carboxamide]	9100	1600	0.008	–	–	–	–	–
Cn1ncc(NC(=O)c2nc(-c3c(F)cccc3F)sc2N)c1N1CC[C@@H](N)[C@H](F)CC1 [No. 139 of US 2013/0079321, 5-amino-N-(5-((4R,5R)-4-amino-5-fluoroazepan-1-yl)-1-methyl-1H-pyrazol-4-yl)-2-(2,6-difluorophenyl)thiazole-4-carboxamide, reference compound]	–	700	–	–	–	–	–	–
CN(C)c1ccc(-c2nc(C(=O)Nc3cnn(C)c3[C@@H]3CC[C@@H](N)[C@H](F)CO3)cs2)cn1 [Example 385, N-[5-[(2S,5R,6S)-5-amino-6-fluoro-oxepan-2-yl]-1-methyl-pyrazol-4-yl]-2-[6-(dimethylamino)-3-pyridyl]thiazole-4-carboxamide]	–	–	0.2	1200	12000	118	–	–
C[C@@H]1C[C@@H](N)CC[C@H](c2c(NC(=O)c3nc(-c4c(F)cccc4F)sc3N)cnn2C)O1 [Example 121, 5-amino-N-(5-((2R,5S,7R)-5-amino-7-methyloxepan-2-yl)-1-methyl-1H-pyrazol-4-yl)-2-(2,6-difluorophenyl)thiazole-4-carboxamide]	–	–	0.003	11.9	3500	13.6	–	–
CN(C)C(=O)c1cc(F)c(-c2nc(C(=O)Nc3cnn(C)c3[C@@H]3CC[C@@H](N)[C@H](F)CO3)cs2)c(F)c1 [Example 354, N-(5-((2S,5R,6S)-5-amino-6-fluorooxepan-2-yl)-1-methyl-1H-pyrazol-4-yl)-2-(4-(dimethylcarbamoyl)-2,6-difluorophenyl)thiazole-4-carboxamide]	–	–	0.083	5100	7300	3400	–	–
Cn1ncc(NC(=O)c2csc(-c3cccnc3)n2)c1[C@@H]1CC[C@@H](N)[C@H](F)CO1 [Example 383, N-[5-[(2S,5R,6S)-5-amino-6-fluoro-oxepan-2-yl]-1-methyl-pyrazol-4-yl]-2-(3-pyridyl)thiazole-4-carboxamide]	–	–	0.991	5700	20800	823	–	–
Cn1ncc(NC(=O)c2nc(-c3c(F)cccc3F)sc2N)c1C1CC[C@@H](N)[C@@H](F)CO1 (stereo partly drawn) [Example 129, 5-amino-N-(5-((5R,6R)-5-amino-6-fluorooxepan-2-yl)-1-methyl-1H-pyrazol-4-yl)-2-(2,6-difluorophenyl)thiazole-4-carboxamide]	–	–	0.006	109	6900	24.7	–	–
C[C@@H]1O[C@@H](c2c(NC(=O)c3csc(-c4c(F)cccc4F)n3)cnn2C)C[C@H](N)[C@@]1(C)O (single isomer, unassigned) [Example 342]	–	–	2.3	21600	10000	12700	–	–
COC1(c2cc(F)c(-c3nc(C(=O)Nc4cnn(C)c4[C@@H]4CC[C@@H](N)[C@H](F)CO4)cs3)c(F)c2)COC1 [Example 339, N-(5-((2S,5R,6S)-5-amino-6-fluorooxepan-2-yl)-1-methyl-1H-pyrazol-4-yl)-2-(2,6-difluoro-4-(3-methoxyoxetan-3-yl)phenyl)thiazole-4-carboxamide]	–	–	0.014	1900	> 25000	52.2	–	–
Cn1ncc(NC(=O)c2csc(-c3ccccn3)n2)c1[C@@H]1CC[C@@H](N)[C@H](F)CO1 [Example 326, N-(5-((2S,5R,6S)-5-amino-6-fluorooxepan-2-yl)-1-methyl-1H-pyrazol-4-yl)-2-(pyridin-2-yl)thiazole-4-carboxamide]	–	–	0.031	436	12400	132	–	–
Cn1ncc(NC(=O)c2nc(-c3c(F)cccc3F)sc2N)c1[C@@H]1CC[C@@H](N)[C@H](F)CO1 [Example 177, 5-Amino-N-[5-[(2S,5R,6S)-5-amino-6-fluoro-oxepan-2-yl]-1-methyl-pyrazol-4-yl]-2-(2,6-difluorophenyl)thiazole-4-carboxamide]	16000	3900	0.00342	–	–	–	–	–
Cn1ncc(NC(=O)c2csc(-c3ccccc3F)n2)c1[C@@H]1CC[C@@H](N)[C@H](F)CO1 [Example 322, N-(5-((2S,5R,6S)-5-amino-6-fluorooxepan-2-yl)-1-methyl-1H-pyrazol-4-yl)-2-(2-fluorophenyl)thiazole-4-carboxamide]	–	–	0.072	1500	6300	113	–	–
Cn1ncc(NC(=O)c2csc(-c3ccc(F)cc3F)n2)c1[C@@H]1CC[C@@H](N)[C@H](F)CO1 [Example 325, N-(5-((2S,5R,6S)-5-amino-6-fluorooxepan-2-yl)-1-methyl-1H-pyrazol-4-yl)-2-(2,4-difluorophenyl)thiazole-4-carboxamide]	–	–	0.05	735	6300	142	–	–
Cn1ncc(NC(=O)c2nc(-c3c(F)cccc3F)sc2N)c1[C@H]1CC[C@@H](N)C(F)CO1 (stereo in doubt) [Example 148, 5-Amino-N-[5-[5-amino-6-fluoro-oxepan-2-yl]-1-methyl-pyrazol-4-yl]-2-(2,6-difluorophenyl)thiazole-4-carboxamide]	–	–	0.079	7700	25000	1600	–	–
Cn1ncc(NC(=O)c2nc(-c3cccc(F)c3F)sc2N)c1[C@@H]1CC[C@@H](N)[C@H](F)CO1 [Example 324, 5-amino-N-(5-((2S,5R,6S)-5-amino-6-fluorooxepan-2-yl)-1-methyl-1H-pyrazol-4-yl)-2-(2,3-difluorophenyl)thiazole-4-carboxamide]	–	–	0.019	116	> 25000	45.3	–	–
C[C@@H](O)c1ccc(-c2nc(C(=O)Nc3cnn(C)c3[C@@H]3CC[C@@H](N)[C@H](F)CO3)cs2)c(F)c1F (single isomer, unassigned) [Example 366]	–	–	0.14	1700	10300	302	–	–
Cn1ncc(NC(=O)c2csc(-c3n[nH]c4c3CCC(C)(C)C4)n2)c1[C@@H]1CC[C@@H](N)[C@H](F)CO1 [Example 373, N-(5-((2S,5R,6S)-5-amino-6-fluorooxepan-2-yl)-1-methyl-1H-pyrazol-4-yl)-2-(6,6-dimethyl-4,5,6,7-tetrahydro-1H-indazol-3-yl)thiazole-4-carboxamide]	–	–	0.009	3400	8600	101	–	–
Cn1ncc(NC(=O)c2csc(-c3c(F)cc([C@H]4CCCO4)cc3F)n2)c1[C@@H]1CC[C@@H](N)[C@H](F)CO1 (single isomer, unassigned) [Example 380]	–	–	0.071	1700	12200	37.2	–	–
C[C@H](O)c1ccc(-c2nc(C(=O)Nc3cnn(C)c3[C@@H]3CC[C@@H](N)[C@H](F)CO3)cs2)c(F)c1F (single isomer, unassigned) [Example 365]	–	–	0.069	348	15900	408	–	–
CO[C@@H]1COC(c2c(NC(=O)c3nc(-c4c(F)cccc4F)sc3N)cnn2C)CC[C@H]1N (stereo partly drawn) [Example 126, 5-amino-N-(5-((5R,6S)-5-amino-6-methoxyoxepan-2-yl)-1-methyl-1H-pyrazol-4-yl)-2-(2,6-difluorophenyl)thiazole-4-carboxamide]	–	–	0.026	–	–	25.2	21.7	25000
CC(C)C(=O)c1cc(F)c(-c2nc(C(=O)Nc3cnn(C)c3[C@@H]3CC[C@@H](N)[C@H](F)CO3)cs2)c(F)c1 [Example 367, N-(5-((2S,5R,6S)-5-amino-6-fluorooxepan-2-yl)-1-methyl-1H-pyrazol-4-yl)-2-(2,6-difluoro-4-isobutyrylphenyl)thiazole-4-carboxamide]	–	–	0.061	5400	24000	245	–	–
Cc1[nH]nc(-c2nc(C(=O)Nc3cnn(C)c3[C@@H]3CC[C@@H](N)[C@H](F)CO3)cs2)c1C [Example 372, N-(5-((2S,5R,6S)-5-amino-6-fluorooxepan-2-yl)-1-methyl-1H-pyrazol-4-yl)-2-(4,5-dimethyl-1H-pyrazol-3-yl)thiazole-4-carboxamide]	–	–	0.064	1600	20500	602	–	–
CO[C@@H]1CO[C@H](c2c(NC(=O)c3csc(-c4c(F)cccc4F)n3)cnn2C)CC[C@H]1N [Example 347, N-(5-((2S,5R,6S)-5-amino-6-methoxyoxepan-2-yl)-1-methyl-1H-pyrazol-4-yl)-2-(2,6-difluorophenyl)thiazole-4-carboxamide]	–	–	0.014	3300	5000	157	–	–
Cn1ncc(NC(=O)c2csc(-c3ccccc3)n2)c1[C@@H]1CC[C@@H](N)[C@H](F)CO1 [Example 327, N-(5-((2S,5R,6S)-5-amino-6-fluorooxepan-2-yl)-1-methyl-1H-pyrazol-4-yl)-2-phenylthiazole-4-carboxamide]	–	–	0.021	648	16800	176	–	–
